Measurements published in paper PMC9249726 (Clinical Pharmacokinetics, 2022).
Where two headings read alike, the source gives them in different places.

Legend:
[1] = milvexian 60 mg; ref previous studies; cited from earlier work
[2] = Safety and tolerability of single oral dose milvexian 60 mg; type: in vivo, human; details: single oral 60 mg, all groups, in words
[3] = animal studies; no reference given; cited from earlier work
[4] = Plasma protein binding; type: in vitro ADME, human; details: for fraction unbound: human, plasma, oral, 60 mg, geometric mean (geometric CV)
[5] = for increase in exposure, AUC(INF) / increase in exposure, Cmax: mild or moderate hepatic impairment compared with normal hepatic function
[6] = test system: activated partial thromboplastin time (aPTT); test: Pharmacodynamic biomarker aPTT after single-dose milvexian 60 mg; type: in vivo, human; details: for Time at which mean aPTT returned to baseline: post-dose; for Maximal percentage increase from baseline in aPTT: single oral 60 mg
[7] = test system: cytochrome P450 (CYP)-3A4; details: in words; no reference given; cited from earlier work
[8] = cited from earlier work

C[C@@H]1CCC[C@H](n2cnc(-c3cc(Cl)ccc3-n3cc(Cl)nn3)cc2=O)c2cc(ccn2)-c2c(cnn2C(F)F)NC1=O [milvexian]
expected variability in pharmacokinetics [1]: ~ 20%
bleeding AEs [2]: no bleeding AEs
deaths, SAEs, discontinuations due to AEs [2]: no serious adverse events (AEs), bleeding AEs, or discontinuations due to AEs
drug-induced liver injury [2]: no reports of drug-induced liver injury
deaths, SAEs, discontinuations due to AEs ([2]; listed as Milvexian): no deaths, SAEs, or treatment discontinuations due to AEs
direct biliary excretion [3]: ~ 30 % of the dose
excretion through metabolism [3]: 40–50 % of the administered dose
fraction unbound ([4]; mild hepatic impairment (n = 9)): 0.0852
fraction unbound ([4]; moderate hepatic impairment (n = 8)): 0.0955
fraction unbound ([4]; normal hepatic function (n = 9)): 0.0775
Plasma protein binding ([4]; in words): moderate to high
geometric mean fraction of unbound milvexian ([4]; mild hepatic impairment): 8.52%
geometric mean fraction of unbound milvexian ([4]; moderate hepatic impairment): 9.55%
geometric mean fraction of unbound milvexian ([4]; normal hepatic function): 7.75%
variability in pharmacokinetics observed in this study ([5]; milvexian 60 mg, group with normal hepatic function): > 50%
increase in exposure, AUC(INF) ([5]; total milvexian): up to 18%
increase in exposure, Cmax ([5]; total milvexian): up to 18%
increase in exposure, AUC(INF) ([5]; unbound milvexian): up to 30%
increase in exposure, Cmax ([5]; unbound milvexian): up to 40%
Time at which mean aPTT returned to baseline ([6]; mild hepatic impairment): ≤ 48 h
Maximal percentage increase from baseline in aPTT ([6]; mild hepatic impairment): approximately 90%
Time at which mean aPTT returned to baseline ([6]; moderate hepatic impairment): approximately 72 h
Maximal percentage increase from baseline in aPTT ([6]; moderate hepatic impairment): approximately 90%
Time at which mean aPTT returned to baseline ([6]; normal hepatic function): ≤ 48 h
increase in aPTT ([6]; participants with hepatic impairment (mild or moderate), single dose 60 mg): 90%
metabolising enzymes [7]: predominantly metabolized by cytochrome P450 (CYP)-3A4, with minor contributions from CYP3A5

O=C(NC[C@H]1CN(c2ccc(N3CCOCC3=O)cc2)C(=O)O1)c1ccc(Cl)s1 [rivaroxaban]
AUC increase in participants with moderate hepatic impairment ([8]; rivaroxaban 10 mg): 2.27 fold

COc1ccc(-n2nc(C(N)=O)c3c2C(=O)N(c2ccc(N4CCCCC4=O)cc2)CC3)cc1 [apixaban]
AUC increase in participants with moderate hepatic impairment ([8]; apixaban 5 mg): 1.09 fold
